Like-named read-outs stand apart in the source and are kept apart here.
How the values were obtained:
GBM LN18 cells = assay: In vitro cell viability assay (Cell Titre Glo, 72 hours); format: cell-based; conditions: Homo sapiens, LN-18, read-out: LN18 pIC50 (converted)
Description: GBM LN18 cells were incubated with increasing concentrations of selected compounds of the invention for 72 hours prior to the measurement of ATP in metabolically viable cells with the Cell Titre® Glo Luminescent reagent. A 10-point concentration response curve up to a maximum concentration of 10 μM was tested.
The percent (%) effect i.e., inhibition at each concentration of compound was calculated based on, and relative to the amount of inhibition produced in the vehicle control and inhibited control wells contained within each plate.

[1] = test system: pChk1(Ser296) in SW620 cells; assay: pChk1(Ser296) sandwich ELISA, cell-based on-target kinase activity; conditions: Homo sapiens, read-out: SW620 pIC50 (converted)
Description: ELISA assays were performed as per the manufacturer's protocol. […] Selected compounds of the invention were tested as a 8-point concentration response up to a maximum concentration of either 1 μM, 3 μM or 10 μM. The percent (%) effect i.e. inhibition at each concentration of compound was calculated based on, and relative to, the amount of inhibition produced in the vehicle control and inhibited control wells contained within each plate.

human Chk1 kinase = biological target: T1, human Chk1 kinase (Homo sapiens, UniProt O14757); assay: biochemical
T1 sequence (O14757 1-476): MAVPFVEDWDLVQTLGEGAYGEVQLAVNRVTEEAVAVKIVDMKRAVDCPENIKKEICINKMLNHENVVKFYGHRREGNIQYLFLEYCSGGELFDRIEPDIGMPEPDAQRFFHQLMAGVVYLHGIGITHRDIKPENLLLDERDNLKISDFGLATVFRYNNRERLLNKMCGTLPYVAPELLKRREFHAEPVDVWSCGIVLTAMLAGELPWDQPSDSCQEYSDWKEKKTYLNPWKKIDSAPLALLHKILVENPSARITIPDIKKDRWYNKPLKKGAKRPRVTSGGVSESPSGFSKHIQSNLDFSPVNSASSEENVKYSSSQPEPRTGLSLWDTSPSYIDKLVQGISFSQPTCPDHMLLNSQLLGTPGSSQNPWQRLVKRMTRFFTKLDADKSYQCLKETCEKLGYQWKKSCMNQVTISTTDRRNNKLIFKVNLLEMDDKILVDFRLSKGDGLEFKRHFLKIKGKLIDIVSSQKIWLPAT

human Chk2 kinase = human Chk2 kinase (Homo sapiens, UniProt O96017); assay: biochemical
[2] = SW-620, neocarzinostatin 7.5 μM, 2 hours
[3] = SW-620, 2 h, neocarzinostatin 7.5 μM

human Chk2 kinase, sequence (O96017 whole entry): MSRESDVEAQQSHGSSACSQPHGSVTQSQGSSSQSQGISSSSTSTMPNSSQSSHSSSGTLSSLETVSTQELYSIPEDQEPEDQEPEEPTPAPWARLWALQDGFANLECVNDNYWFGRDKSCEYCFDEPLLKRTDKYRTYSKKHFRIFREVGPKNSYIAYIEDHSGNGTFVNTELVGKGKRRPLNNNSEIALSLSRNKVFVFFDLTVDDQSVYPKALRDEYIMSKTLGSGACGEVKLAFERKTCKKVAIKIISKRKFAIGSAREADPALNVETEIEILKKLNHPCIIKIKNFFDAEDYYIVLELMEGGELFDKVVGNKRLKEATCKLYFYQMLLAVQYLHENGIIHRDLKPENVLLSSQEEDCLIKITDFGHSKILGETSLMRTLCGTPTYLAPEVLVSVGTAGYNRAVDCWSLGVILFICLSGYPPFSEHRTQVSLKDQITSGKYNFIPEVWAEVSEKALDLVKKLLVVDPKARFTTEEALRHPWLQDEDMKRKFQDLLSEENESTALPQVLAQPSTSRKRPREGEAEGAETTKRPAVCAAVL

Row | SMILES | IC50 (human Chk1 kinase) | IC50 (human Chk2 kinase) | IC50 [1, 3] | IC50 (GBM LN18 cells) | IC50 [1, 2]
1 | COc1cc(N2CC[C@@H](N(C)C)C2)ccc1-n1cnc(Nc2cnc(C#N)cn2)c1 [Example 47, (R)-5-((1-(4-(3-(Dimethylamino)pyrrolidin-1-yl)-2-methoxyphenyl)-1H-imidazol-4-yl)amino)pyrazine-2-carbonitrile] | – | – | – | < 1 µM | < 1 µM
2 | [2H]C([2H])([2H])N([C@@H]1CCN(c2ccc(-n3cnc(Nc4cnc(C#N)cn4)c3)cc2)C1)C([2H])([2H])[2H] [Example 84, (R)-5-((1-(4-(3-(Bis(methyl-d3)amino)pyrrolidin-1-yl)phenyl)-1H-imidazol-4-yl)amino)pyrazine-2-carbonitrile] | < 0.01 µM | – | – | < 1 µM | 1 to 10 µM
3 | CN(C)[C@]1(C)CCN(c2ccc(-n3cnc(Nc4cnc(C#N)cn4)c3)cc2)C1 [Example 78, (R)-5-((1-(4-(3-(Dimethylamino)-3-methylpyrrolidin-1-yl)phenyl)-1H-imidazol-4-yl)amino)pyrazine-2-carbonitrile] | < 0.01 µM | 1 to 10 µM | – | < 1 µM | < 1 µM
4 | CN1C[C@@H]2CN(c3ccc(-n4cnc(Nc5cnc(C#N)cn5)c4)cc3)C[C@@H]21 [Example 1, 5-((1-(4-((1R,5R)-6-Methyl-3,6-diazabicyclo[3.2.0]heptan-3-yl)phenyl)-1H-imidazol-4-yl)amino)pyrazine-2-carbonitrile] | < 0.01 µM | 1 to 10 µM | 1 to 10 µM | < 1 µM | –
5 | C[C@H]1CN(c2ccc(-n3cnc(Nc4cnc(C#N)cn4)c3)cc2)C[C@@H]1N(C)C [Example 73, 5-((1-(4-((3R,4S)-3-(Dimethylamino)-4-methylpyrrolidin-1-yl)phenyl)-1H-imidazol-4-yl)amino)pyrazine-2-carbonitrile] | < 0.01 µM | 1 to 10 µM | – | < 1 µM | < 1 µM
6 | C[C@@H]1C[C@@H](N(C)C)CN1c1ccc(-n2cnc(Nc3cnc(C#N)cn3)c2)cc1 [Example 74, 5-((1-(4-((2R,4R)-4-(Dimethylamino)-2-methylpyrrolidin-1-yl)phenyl)-1H-imidazol-4-yl)amino)pyrazine-2-carbonitrile] | – | – | – | < 1 µM | < 1 µM
7 | CCN(C)[C@@H]1CCN(c2ccc(-n3cnc(Nc4cnc(C#N)cn4)c3)cc2)C1 [Example 89, (R)-5-((1-(4-(3-(Ethyl(methyl)amino)pyrrolidin-1-yl)phenyl)-1H-imidazol-4-yl)amino)pyrazine-2-carbonitrile] | < 0.01 µM | 1 to 10 µM | – | < 1 µM | –
8 | CN(C)[C@@H]1CCN(c2ccc(-n3cnc(Nc4cnc(C#N)cn4)c3)c(F)c2)C1 [Example 65, (R)-5-((1-(4-(3-(Dimethylamino)pyrrolidin-1-yl)-2-fluorophenyl)-1H-imidazol-4-yl)amino)pyrazine-2-carbonitrile] | – | – | – | < 1 µM | 1 to 10 µM
9 | CN(C)[C@@H]1CCN(c2cnc(-n3cnc(Nc4cnc(C#N)cn4)c3)cn2)C1 [Example 52, (R)-5-((1-(5-(3-(Dimethylamino)pyrrolidin-1-yl)pyrazin-2-yl)-1H-imidazol-4-yl)amino)pyrazine-2-carbonitrile] | 0.0316 to 0.1 µM | 10 to 100 µM | – | 1 to 10 µM | –

Second part, led by results:

Row | IC50 (human Chk1 kinase) | IC50 (human Chk2 kinase) | IC50 [1, 3] | SMILES | IC50 (GBM LN18 cells) | IC50 [1, 2]
10 | 0.01 to 0.0316 µM | 1 to 10 µM | 1 to 10 µM | N#Cc1cnc(Nc2cn(-c3ccc(N4CC[C@@H](N)C4)cc3)cn2)cn1 [Example 153, (R)-5-((1-(4-(3-Aminopyrrolidin-1-yl)phenyl)-1H-imidazol-4-yl)amino)pyrazine-2-carbonitrile] | 1 to 10 µM | –
11 | 0.01 to 0.0316 µM | 10 to 100 µM | 1 to 10 µM | C[C@@]1(N)CCN(c2ccc(-n3cnc(Nc4cnc(C#N)cn4)c3)cc2)C1 [Example 156, (R)-5-((1-(4-(3-Amino-3-methylpyrrolidin-1-yl)phenyl)-1H-imidazol-4-yl)amino)pyrazine-2-carbonitrile] | < 1 µM | –
12 | < 0.01 µM | 1 to 10 µM | 1 to 10 µM | Cc1nc(-n2cnc(Nc3cnc(C#N)cn3)c2)ccc1N1CC[C@@H](N(C)C)C1 [Example 59, (R)-5-((1-(5-(3-(Dimethylamino)pyrrolidin-1-yl)-6-methylpyridin-2-yl)-1H-imidazol-4-yl)amino)pyrazine-2-carbonitrile] | < 1 µM | –
13 | < 0.01 µM | 10 to 100 µM | – | N#Cc1cnc(Nc2cn(-c3ccc(N4C[C@@H](F)[C@@H](N)C4)cc3)cn2)cn1 [Example 157, 5-((1-(4-((3S,4R)-3-Amino-4-fluoropyrrolidin-1-yl)phenyl)-1H-imidazol-4-yl)amino)pyrazine-2-carbonitrile] | 1 to 10 µM | –
14 | < 0.01 µM | 1 to 10 µM | 1 to 10 µM | N#Cc1cnc(Nc2cn(-c3ccc(N4C[C@H](N)C5(CC5)C4)cc3)cn2)cn1 [Example 154, (R)-5-((1-(4-(7-Amino-5-azaspiro[2.4]heptan-5-yl)phenyl)-1H-imidazol-4-yl)amino)pyrazine-2-carbonitrile] | < 1 µM | –
15 | < 0.01 µM | 1 to 10 µM | < 1 µM | C[C@@H]1C[C@@H](N(C)C)CN1c1ccc(-n2cnc(Nc3cnc(C#N)cn3)c2)nc1 [Example 85, 5-((1-(5-((2R,4R)-4-(Dimethylamino)-2-methylpyrrolidin-1-yl)pyridin-2-yl)-1H-imidazol-4-yl)amino)pyrazine-2-carbonitrile] | < 1 µM | –
16 | 0.01 to 0.0316 µM | 1 to 10 µM | – | CCN(C)[C@@H]1CCN(c2ccc(-n3cnc(Nc4cnc(C#N)cn4)c3)nc2)C1 [Example 90, (R)-5-((1-(5-(3-(Ethyl(methyl)amino)pyrrolidin-1-yl)pyridin-2-yl)-1H-imidazol-4-yl)amino)pyrazine-2-carbonitrile] | < 1 µM | –
17 | 0.01 to 0.0316 µM | 10 to 100 µM | – | N#Cc1cnc(Nc2cn(-c3ccc(N4C[C@H](N)[C@@H](F)C4)cc3)cn2)cn1 [Example 152, 5-((1-(4-((3S,4S)-3-Amino-4-fluoropyrrolidin-1-yl)phenyl)-1H-imidazol-4-yl)amino)pyrazine-2-carbonitrile] | 1 to 10 µM | –
18 | 0.316 to 1 µM | 10 to 100 µM | – | CN(C)c1cc(N2CC[C@@H](N(C)C)C2)ccc1-n1cnc(Nc2cnc(C#N)cn2)c1 [Example 83, (R)-5-((1-(2-(Dimethylamino)-4-(3-(dimethylamino)pyrrolidin-1-yl)phenyl)-1H-imidazol-4-yl)amino)pyrazine-2-carbonitrile] | 1 to 10 µM | –
19 | 0.0316 to 0.1 µM | 10 to 100 µM | – | CN1C[C@H]2CN(c3ccc(-n4cnc(Nc5cnc(C#N)cn5)c4)cc3)[C@H]2C1 [Example 68, 5-((1-(4-((1S,5R)-3-Methyl-3,6-diazabicyclo[3.2.0]heptan-6-yl)phenyl)-1H-imidazol-4-yl)amino)pyrazine-2-carbonitrile] | < 1 µM | –
20 | 0.1 to 0.316 µM | 10 to 100 µM | – | C[N+](C)([O-])[C@@H]1CCN(c2ccc(-n3cnc(Nc4cnc(C#N)cn4)c3)cc2)C1 [Example 141, (R)-1-(4-(4-((5-Cyanopyrazin-2-yl)amino)-1H-imidazol-1-yl)phenyl)-N,N-dimethylpyrrolidin-3-amine oxide] | 1 to 10 µM | –
